Test results from BindingDB's records for doi:10.7270/Q2TX3CTT (Broad Institute, 2010).
pEC50: −log10 of the molar value.

The molecules below were run against Glycogen synthase kinase-3 beta (Homo sapiens, UniProt P49841) (assay: concentration-response blocking of human GSK3B – biochemical, luminescence, cell-free homogeneous, retest, dose response (AID 434954)).
Glycogen synthase kinase-3 beta, sequence (P49841 whole entry): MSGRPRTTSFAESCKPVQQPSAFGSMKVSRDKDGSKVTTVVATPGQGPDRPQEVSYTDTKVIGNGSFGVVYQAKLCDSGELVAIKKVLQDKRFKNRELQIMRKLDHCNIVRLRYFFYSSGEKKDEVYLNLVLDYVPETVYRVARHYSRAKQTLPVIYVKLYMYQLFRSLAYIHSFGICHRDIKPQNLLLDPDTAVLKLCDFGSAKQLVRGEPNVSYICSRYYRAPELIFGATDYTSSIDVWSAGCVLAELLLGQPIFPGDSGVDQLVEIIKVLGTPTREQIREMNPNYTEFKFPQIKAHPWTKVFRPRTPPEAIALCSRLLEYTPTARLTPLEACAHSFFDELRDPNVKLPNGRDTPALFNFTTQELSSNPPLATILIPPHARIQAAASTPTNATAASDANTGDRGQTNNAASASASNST

Row | Structure (SMILES) | pEC50
1 | O=C(Cn1nnc(-c2ccccc2)n1)NN=Cc1ccc(-c2ccc(Cl)cc2)o1 [N'-{[5-(4-chlorophenyl)-2-furyl]methylene}-2-(5-phenyl-2H-tetrazol-2-yl)acetohydrazide] | < 3.52
2 | Cc1ccc2c(c1)COc1c3ccc(C(=O)O)cc3nn1-2 | 5.06
3 | CCOc1ccc(-c2nnc3ccc(SC)nn23)cc1 [SMR000028968] | < 3.52
4 | Fc1ccccc1CSc1nnc(-c2ccccc2)o1 [MLS000063511] | < 3.52
5 | Cc1ccc(NC(=O)c2ccc(C)c(S(=O)(=O)N3CCCCC3)c2)nc1 [MLS001078236] | < 3.52
6 | Cn1c(=O)c2[nH]c(CCCC(=O)O)nc2n(Cc2ccccc2)c1=S [4-(3-benzyl-1-methyl-6-oxo-2-sulfanylidene-7H-purin-8-yl)butanoic acid] | 5.29
7 | CCOc1ccccc1CNC(=O)CCn1ccc2cc(S(=O)(=O)N3CCCCC3)ccc21 [SMR000629632] | < 3.52
8 | COC(=O)c1ccc2c(=O)n(CC3CCCO3)c(SCC(=O)Nc3ccccc3Cl)nc2c1 (stereo not drawn) [2-[[2-(2-chloroanilino)-2-keto-ethyl]thio]-4-keto-3-(tetrahydrofurfuryl)quinazoline-7-carboxylic acid methyl ester] | < 3.52
9 | N#Cc1c(N)nc(-c2ccccc2)nc1-c1ccccc1 [4-amino-2,6-diphenyl-5-pyrimidinecarbonitrile] | < 3.52
10 | O=C1/C(=C/C=C/c2ccccc2)Oc2c1ccc(O)c2CN1CCN(CCO)CC1 [SMR000415785] | < 3.52
11 | CCOC(=O)c1cnc2c(C)cccc2c1Nc1ccc(N2CCOCC2)cc1 [ethyl 8-methyl-4-[(4-morpholin-4-ylphenyl)amino]quinoline-3-carboxylate] | < 3.52
12 | C=CCNc1nc(N)c([N+](=O)[O-])c(NCCO)n1 [2-(2-Allylamino-6-amino-5-nitro-pyrimidin-4-ylamino)-ethanol] | 4.33
13 | c1ccc(OCCCn2nnc(-c3ccncc3)n2)cc1 [SMR000008082] | 4.69
14 | Cc1nn(CC(=O)NCCCN2CCCCC2)c(=O)c2cccn12 [2-(4-methyl-1-oxidanylidene-pyrrolo[1,2-d][1,2,4]triazin-2-yl)-N-(3-piperidin-1-ylpropyl)ethanamide] | < 3.52
15 | COC(=O)c1cc(C(=O)Nc2cc(C)ccn2)cc([N+](=O)[O-])c1 [methyl 3-{[(4-methyl-2-pyridinyl)amino]carbonyl}-5-nitrobenzoate] | < 3.52
16 | CCCCOC(=O)C1C(C)=Nc2ncnn2C1c1cccc(OC)c1OC (stereo not drawn) [butyl 7-(2,3-dimethoxyphenyl)-5-methyl-4,7-dihydro[1,2,4]triazolo[1,5-a]pyrimidine-6-carboxylate] | 5.37
17 | COc1cccc(C2C3=C(CC(C)(C)CC3=O)N=C(C)C2C#N)c1 (stereo not drawn) [4-(3-methoxyphenyl)-2,7,7-trimethyl-5-oxo-1,4,5,6,7,8-hexahydro-3-quinolinecarbonitrile] | < 3.52
18 | CCN(CC)CCNC(=O)C(=O)Nc1ccc2c(c1)N(S(=O)(=O)c1cccs1)CCC2 [N-[2-(diethylamino)ethyl]-N'-(1-thiophen-2-ylsulfonyl-3,4-dihydro-2H-quinolin-7-yl)oxamide] | < 3.52
19 | CCCc1cc(O)c2c(C)cc(=O)oc2c1 [5-hydroxy-4-methyl-7-propyl-1-benzopyran-2-one] | < 3.52
20 | CC(C)(C)c1csc(NC(=O)c2cccnc2)n1 [SMR000496644] | < 3.52
21 | CC(C)Cn1nc(NC(=O)C(C)(C)C)c2cc3ccccc3nc21 [MLS000081069] | 4.15
22 | Fc1cccc(Cl)c1CSc1nnc(-c2ccncc2)o1 [2-[(2-chloro-6-fluorophenyl)methylthio]-5-pyridin-4-yl-1,3,4-oxadiazole] | 5.03
23 | Cc1ccc2c(c1)C1CN(C)CCC1N2C(=S)Nc1ccc(Cl)cc1Cl (stereo not drawn) [SMR000385491] | < 3.52

Row | Structure (SMILES) | pEC50
24 | Cc1ccc(SCC(=O)Nc2ccc3c(c2)C(=O)NC3=O)cc1 [N-[1,3-bis(oxidanylidene)isoindol-5-yl]-2-(4-methylphenyl)sulfanyl-ethanamide] | < 3.52
25 | CC(C)c1ccc(C=NNC(=O)c2nnn(-c3nonc3N)c2CN2CCOCC2)cc1 [SMR000646507] | < 3.52
26 | CC1CCCC(C)N1C(=O)CN1C(=O)C(C)(C)Oc2ccc(C(=O)NC3CCCC3)cc21 (stereo not drawn) | < 3.52
27 | N#Cc1ccc(CSc2nnc(-c3ccncc3)o2)cc1 [MLS000687325] | 4.82
28 | C=CCNc1nc(N)c([N+](=O)[O-])c(Nc2cccc(Cl)c2)n1 [N4-(3-chlorophenyl)-5-nitro-N2-prop-2-enyl-pyrimidine-2,4,6-triamine] | 4.93
29 | CCOC(=O)c1nnn(-c2nonc2N)c1CSc1ccc(C)cc1 [SMR000020597] | 3.80
30 | CCSc1nnc(-c2cccs2)o1 [2-ethylsulfanyl-5-thiophen-2-yl-1,3,4-oxadiazole] | < 3.52
31 | O=C(NCCN1C(=O)S/C(=C\c2ccc(Cl)c(Cl)c2)C1=O)C1COc2ccccc2O1 (stereo not drawn) [SMR000254587] | < 3.52
32 | Cc1cc2c(Nc3ccc(O)cc3)ncnc2s1 [4-(6-Methyl-thieno[2,3-d]pyrimidin-4-ylamino)-phenol] | < 3.52
33 | Cc1ccc(OCC(=O)N/N=C/c2ccc(O)cc2)c([N+](=O)[O-])c1 [2-(4-methyl-2-nitro-phenoxy)-N'-[(4-oxidanylidenecyclohexa-2,5-dien-1-ylidene)methyl]ethanehydrazide] | 5.14
34 | COc1cccc(/C=C2/Sc3ccc(C(=O)NCCN4CCCC4)cc3NC2=O)c1 [(2E)-2-[(3-methoxyphenyl)methylidene]-3-oxo-N-(2-pyrrolidin-1-ylethyl)-4H-1,4-benzothiazine-6-carboxamide] | 5.55
35 | CCOC(=O)c1cnc2ccc(OCC)cc2c1N1CCN(c2ccccc2)CC1 [SMR000130091] | 4.54
36 | c1ccc(CNc2nc(-c3cccnc3)nc3ccccc23)cc1 | < 3.52
37 | CC(C)(C)C(=O)COC(=O)c1ccc(O)cc1 | < 3.52
38 | COCCOC(=O)c1c(C)oc2ccc(OC(=O)c3cccs3)cc12 [MLS000111716] | < 3.52
39 | S=C1Nc2cc(Cl)ccc2Sc2ccccc21 [MLS000698392] | < 3.52
40 | Cc1ccc(-n2nc3c(N4CCC(C(=O)N5CCCCCC5)CC4)nnc(C)c3c2C)cc1 [MLS001028811] | < 3.52
41 | COc1cc(C=NNC(=O)COc2ccccc2[N+](=O)[O-])ccc1OC(=O)c1ccco1 [SMR000204365] | < 3.52
42 | CC(C)n1cnc2c(Nc3cccc(Cl)c3)nc(NCCCO)nc21 | < 3.52
43 | Nc1nc(NCc2ccccc2)nc(Nc2ccc(F)cc2)c1[N+](=O)[O-] [2-N-benzyl-4-N-(4-fluorophenyl)-5-nitropyrimidine-2,4,6-triamine] | < 3.52
44 | CCn1c(/C=C/N(C)c2ccccc2)[n+](CC)c2cc(Cl)ccc21 [SMR000173749] | < 3.52
45 | C=CCOc1ccc(CN=Nc2ccccn2)cc1OC [N-[(3-methoxy-4-prop-2-enoxyphenyl)methylideneamino]pyridin-2-amine] | < 3.52
46 | COc1ccc(/C=C2/Sc3ccc(C(=O)NCCN4CCCCCC4)cc3NC2=O)cc1 [(2E)-N-[2-(azepan-1-yl)ethyl]-2-[(4-methoxyphenyl)methylidene]-3-oxo-4H-1,4-benzothiazine-6-carboxamide] | < 3.52

Row | Structure (SMILES) | pEC50
47 | CCN1CCN(CC2COc3ccccc3O2)CC1 (stereo not drawn) [MLS001173643] | < 3.52
48 | COC(CNC(=O)CCc1c(C)nc2c(c(C)nn2-c2ccc(C)cc2)c1C)OC [N-(2,2-dimethoxyethyl)-3-[3,4,6-trimethyl-1-(4-methylphenyl)pyrazolo[3,4-b]pyridin-5-yl]propanamide] | < 3.52
49 | OC(COc1ccc(OCC(O)CN2CCN(Cc3ccccc3)CC2)cc1)CN1CCN(Cc2ccccc2)CC1 (stereo not drawn) [SMR000473226] | < 3.52
50 | Cc1nnc2n(-c3ccccc3)c(=O)c3c4c(sc3n12)CCCC4 [MLS000071277] | < 3.52
51 | COc1ccc2c(c1)=C(NN1C(=O)c3ccccc3C1=O)C(=O)N=2 [2-[(5-methoxy-2-oxidanylidene-indol-3-yl)amino]isoindole-1,3-dione] | < 3.52
52 | Clc1ccc(CSc2nnc(-c3ccncc3)o2)cc1 [2-[(4-chlorobenzyl)thio]-5-(4-pyridyl)-1,3,4-oxadiazole] | 4.59
53 | CCN1/C(=C/C(C)=C/c2sc3ccccc3[n+]2CC)Sc2ccccc21 [SMR000354813] | 4.61
54 | O=C(Nc1ccc(Cl)cc1)Nc1ccccn1 [1-(4-chlorophenyl)-3-(2-pyridinyl)urea] | 4.36
55 | CN(C)/C=C/C(=O)c1cnc(-c2cccc(Cl)c2)s1 [MLS000706958] | < 3.52
56 | CCCNC(=O)c1ccc(SCC(=O)N(CC)CC)c([N+](=O)[O-])c1 | < 3.52
57 | CCc1nn(CC(=O)NCCCc2ccccc2)c(=O)c2cc3c(OC)cccc3n12 [SMR000624506] | < 3.52
58 | CC1CN(C(=O)CCc2cc(C(C)(C)C)c(O)c(C(C)(C)C)c2)CC(C)O1 (stereo not drawn) [3-(3,5-ditert-butyl-4-hydroxyphenyl)-1-(2,6-dimethyl-4-morpholinyl)-1-propanone] | < 3.52
59 | O=c1[nH]c2ccccc2c(=O)n1-c1ccc(Cl)cc1Cl [3-(2,4-dichlorophenyl)quinazoline-2,4(1H,3H)-dione] | < 3.52
60 | O=C(NCC(c1ccco1)N1CCc2ccccc21)c1c(F)cccc1F (stereo not drawn) [N-[2-(2,3-dihydroindol-1-yl)-2-(furan-2-yl)ethyl]-2,6-bis(fluoranyl)benzamide] | < 3.52
61 | O=C(O)c1ccccc1Nc1ccc(OC(F)F)cc1 [SMR000372165] | < 3.52
62 | COc1ccc(C(=O)c2coc3ccc(O)c(CN(C)C)c23)cc1 [MLS000115878] | < 3.52
63 | COc1cccc(C2CC(c3ccc(Cl)cc3)n3nc(N)nc3N2)c1 (stereo not drawn) [7-(4-chlorophenyl)-5-(3-methoxyphenyl)-1,5,6,7-tetrahydro-[1,2,4]triazolo[1,5-a]pyrimidin-2-amine] | < 3.52
64 | O=C(Nc1cccc(Cl)c1)c1ccc(NCCCN2CCOCC2)c([N+](=O)[O-])c1 [SMR000194818] | < 3.52
65 | Nc1nc(Nc2ccccc2)nc(NCCO)c1[N+](=O)[O-] [2-(6-Amino-5-nitro-2-phenylamino-pyrimidin-4-ylamino)-ethanol] | 5.24
66 | COc1ccc(-c2nn(-c3ccccc3)cc2CN=Nc2ccc(Cl)c(C(=O)O)c2)cc1OC [SMR000371971] | < 3.52
67 | O=C(O)c1ccccc1Nc1ccnc(Cl)n1 [2-[(2-chloro-4-pyrimidinyl)amino]benzoic acid] | < 3.52
68 | CC(C)=CCc1c(O)cc2c(=O)c3ccc(O)cc3oc2c1O [SMR000470963] | < 3.52
